The assay has as its system translocation of fibrillar adhesion in GFP-tensin transfected HFF cells. As to the kind of experiment: Correlation analysis of fibrillar adhesion dynamics in time-lapse movies of GFP-tensin transfected cells treated with acto-myosin inhibitors. It is filed as cell-based. The settings on record: for duration till maximum respond after addition / translocation of fibrillar adhesion following addition: 2 mM Lat-A, 150 mM H-7 or 100 mM ML-7; for correlation between sequential frames following addition of inhibitor: Eq. 1, 2 mM Lat-A, 150 mM H-7 or 100 mM ML-7, before treatment <0.65. On the procedure:
HFF cells were analyzed by time-lapse fluorescence recording starting 24 hours after transfection with GFP-tensin as described (10). During the recording different inhibitors of acto-myosin contractility were added ([…]) at the time point indicated by the first arrow, and washed out at the time point indicated by the second arrow. In each digital movie, a constant square frame (I) of […] containing only fibrillar adhesions without focal contacts was acquired as a function of time. Correlation was calculated between pairs of subsequent time points (It and It+1) for the duration of the movie. Correlation between It and It+1 was calculated (according to Eq. 1, where N=It and M=It+1). The graphs present this correlation as a function of time (t); and
The basic idea of this novel approach is that correlation is a quantitative measure of image similarity. Correlation is defined as the normalized pixel-by-pixel multiplication of two normalized images M and N (Eq. 1), and it is higher when the similarity between the two images is higher. Thus, if, and only if, N and M are identical images the correlation gets its maximum value of 1. When N equals −M (inverted images) the correlation reaches its minimum value, −1, and when N and M are totally unrelated images the correlation approaches zero. The below correlation equation (Eq. 1) can be extended to evaluate the similarity of two images which, are displaced with respect to each other (Eq. 2). To illustrate how this can be applied to characterize dynamic processes consider 4 cases in which N and M are two images of the same field taken at two close time points: (i) a correlation which equals 1 indicates a lack of any change in the field (since N equals M); (ii) if all the objects in the field are translated one pixel along the x axis, such that Mx,y=Nx+1,y, the correlation defined above will be less then 1. Yet when the objects are bigger then one pixel they will overlap in the two images, and thus the value of the correlation between N and M will be still close to 1; (iii) if the objects are translated 100 pixels, such that Mx,y=Nx+100,y with no overlap between the objects in the two images, the correlation will be low. However there is a single translational vector ([a^max,b^max], Eq. 4), i.e. (1,0) for case (ii) and (100,0) for case (iii), that will bring the two images to perfectly overlap, Mx,y=Nx+a,y+b, and will raise the more general translated correlation (C, Eq. 2) back to its maximal value of unity; (iv) if the objects moved 100 pixels, but different ones moved to different directions, the correlation will be low for all possible translational vectors, since the two images never overlap.
Inhibitors of acto-myosin contractility, like latrunculin-A (Lat-A), H-7 and ML-7, block the translocation of fibrilar adhesion (Zamir et al., Nature Cell Biology, Vol. 2, 191-196, 2000). In order to follow the kinetics of this effect a correlation analysis according to Eq. 1 was applied on digital movies of GFP-tensin transfected cells before, during and after treatments with inhibitors. Before treatment, fibrilar adhesions were highly dynamic and thus the correlation between two sequential frames was low (<0.65, FIG. 2). Following the addition of Lat-A, H-7 or ML-7 the translocation of fibrillar adhesion was inhibited, leading to higher correlation between sequential frames (˜0.78, 0.81 and 0.92 for Lat-A, H-7 and ML-7, respectively). The duration till maximum respond to Lat-A was relatively short (˜8 minutes after addition), while the respond to H-7 and ML-7 were more gradual (˜50 minutes after H-7 addition and ˜80 minutes after ML-7 addition). After washing-out the drugs, the translocation of fibrillar adhesion recovered and the correlation dropped back to lower levels. The recovery from H-7 was relatively fast (<20 minutes) while recovery from Lat-A and ML-7 took relatively long time (>80 minutes).

As to `CC1CNCCN1S(=O)(=O)c1cccc2cnccc12` (stereo not shown) [H-7], the “duration till maximum respond after addition” value (shortened to “duration till maximum respond”) is about 50 min, the “translocation of fibrillar adhesion following addition” value is given as “inhibited” and the “correlation between sequential frames following addition of inhibitor” value is recorded as about 0.81. For the setting “after wash-out”, the “recovery of fibrillar adhesion translocation after washing-out the drug” value was under 20 min.
In the case of `O=S(=O)(c1cccc2c(I)cccc12)N1CCCNCC1` [ML-7], the “duration till maximum respond” value is about 80 min, the “translocation of fibrillar adhesion following addition” value is “inhibited” and the “correlation between sequential frames following addition of inhibitor” value was about 0.92.
As to `C/C1=C/C(=O)O[C@@H]2C[C@@H](CC[C@H](C)/C=C\C=C\CC1)O[C@@](O)([C@@H]1CSC(=O)N1)C2` [Lat-A, latrunculin-A], the “duration till maximum respond” value was about 8 min, the “translocation of fibrillar adhesion following addition” value is recorded as “inhibited” and the “correlation between sequential frames following addition of inhibitor” value is given as about 0.78.

The values above are taken from US20060240404A1, “Methods of isolating genes encoding proteins of specific function and of screening for pharmaceutically active agents” (Yeda Research And Development Co. Ltd., priority 2000, published 2006).
